In patent publication US20260132127A1, “NOVEL SPIRO COMPOUND” (MITSUBISHI TANABE PHARMA CORPORATION, priority 2021, published 2026):

biological target: T1, human TRH-DE (Homo sapiens, UniProt Q9UKU6); test: TRH-DE inhibition test (RapidFire MS measurement of product Cyclo (His-Pro)); assay type: biochemical; conditions: membrane fraction of Expi 293 cells expressing human TRH-DE; 10 μM TRH substrate; room temperature, 2 hours; 16-point concentration test
T1 construct: expressed in transfected cells; host or cells: Expi 293 cells (transient expression), membrane fraction
T1 sequence (Q9UKU6 1-1069): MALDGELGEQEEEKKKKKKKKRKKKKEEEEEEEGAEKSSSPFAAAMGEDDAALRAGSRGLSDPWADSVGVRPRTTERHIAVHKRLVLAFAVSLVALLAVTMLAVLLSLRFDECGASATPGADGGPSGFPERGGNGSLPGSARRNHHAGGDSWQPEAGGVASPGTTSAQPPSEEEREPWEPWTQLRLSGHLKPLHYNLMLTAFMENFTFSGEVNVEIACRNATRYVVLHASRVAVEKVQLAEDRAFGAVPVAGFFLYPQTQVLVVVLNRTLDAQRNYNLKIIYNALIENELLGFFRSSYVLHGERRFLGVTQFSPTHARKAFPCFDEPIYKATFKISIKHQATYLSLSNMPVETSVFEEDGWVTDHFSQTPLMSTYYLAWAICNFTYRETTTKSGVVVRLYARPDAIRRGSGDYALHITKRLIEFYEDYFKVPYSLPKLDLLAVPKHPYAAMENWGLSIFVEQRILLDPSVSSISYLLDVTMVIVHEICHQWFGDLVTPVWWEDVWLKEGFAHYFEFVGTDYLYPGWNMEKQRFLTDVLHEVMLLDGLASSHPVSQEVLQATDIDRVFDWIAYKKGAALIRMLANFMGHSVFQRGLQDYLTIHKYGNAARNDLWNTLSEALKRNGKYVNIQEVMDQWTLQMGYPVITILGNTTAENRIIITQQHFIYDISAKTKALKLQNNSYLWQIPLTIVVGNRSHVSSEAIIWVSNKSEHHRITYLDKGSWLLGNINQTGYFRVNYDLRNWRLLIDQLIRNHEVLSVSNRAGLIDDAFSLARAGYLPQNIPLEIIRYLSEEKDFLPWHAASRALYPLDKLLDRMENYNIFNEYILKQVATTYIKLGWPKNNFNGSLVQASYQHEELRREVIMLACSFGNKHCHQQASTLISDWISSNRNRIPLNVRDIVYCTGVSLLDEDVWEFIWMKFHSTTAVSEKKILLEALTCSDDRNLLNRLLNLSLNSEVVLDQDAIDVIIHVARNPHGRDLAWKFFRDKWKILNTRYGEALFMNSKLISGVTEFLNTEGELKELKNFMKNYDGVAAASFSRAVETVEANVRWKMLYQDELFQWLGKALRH
Outline: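 Inhibition derived from product/internal-standard ratios of Cyclo(His-Pro), quantified by RapidFire triple-quadrupole MS after acetonitrile:methanol quench, with IC50 fitted over 16 concentrations. Enzyme source: membranes of Expi 293 cells transiently expressing human TRH-DE, 4 μg/ml, pH 7.4 phosphate buffer. Incubation with 10 μM substrate ran 2 h at room temperature.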

Structure (SMILES) | IC50
C[C@@H]1COc2cc(N(C)CC3CCCCC3)ncc2C(=O)N1C1CC2(C1)CN(S(=O)(=O)c1ccccc1F)C2 [Example 138] | 1 nM
C[C@@H]1COc2cc(N(C)Cc3ccccc3)ncc2C(=O)N1C1CC2(C1)CN(S(=O)(=O)c1ccccc1F)C2 [Example 139] | 2 nM
C[C@@H]1COc2cc(Nc3ccc(F)cc3)ncc2C(=O)N1C1CC2(C1)CN(S(=O)(=O)c1ccccc1F)C2 [Example 140] | 1 nM
C[C@@H]1COc2cc(N(C)c3ccc(F)cc3)ncc2C(=O)N1C1CC2(C1)CN(S(=O)(=O)c1ccccc1F)C2 [Example 141] | 1 nM
C[C@@H]1CNc2nc(N3C[C@H]4C[C@H]4C3)ccc2C(=O)N1C1CC2(C1)CN(S(=O)(=O)c1ccccc1F)C2 [Example 161] | 1 nM
C[C@@H]1CNc2nc(N3CC[C@H](F)C3)ccc2C(=O)N1C1CC2(C1)CN(S(=O)(=O)c1ccccc1F)C2 [Example 162, (3R)-4-[2-(2-fluorophenyl)sulfonyl-2-azaspiro[3.3]heptan-6-yl]-8-[(3S)-3-fluoropyrrolidin-1-yl]-3-methyl-2,3-dihydro-H-pyrido[2,3-e][1,4]diazepin-5-one] | 2 nM
COc1ccc2c(n1)OC[C@@H](C)N(C1CC3(C1)CN(S(=O)(=O)c1ccccc1F)C3)C2=O [Example 163, (3R)-4-[2-(2-fluorophenyl)sulfonyl-2-azaspiro[3.3]heptan-6-yl]-8-methoxy-3-methyl-2,3-dihydropyrido[3,2-f][1,4]oxazepin-5-one] | 8 nM
COc1cnc2c(n1)OC[C@@H](C)N(C1CC3(C1)CN(S(=O)(=O)c1ccccc1F)C3)C2=O [Example 166] | 5 nM
COc1nc2c(cc1F)C(=O)N(C1CC3(C1)CN(S(=O)(=O)c1ccccc1F)C3)[C@H](C)CO2 [Example 167, (3R)-7-fluoro-4-[2-(2-fluorophenyl)sulfonyl-2-azaspiro[3.3]heptan-6-yl]-8-methoxy-3-methyl-2,3-dihydropyrido[3,2-f][1,4]oxazepin-5-one] | 16 nM
C[C@@H]1COc2c(cnn2C)C(=O)N1C1CC2(C1)CN(S(=O)(=O)c1ccccc1F)C2 [Example 170, (6R)-5-[2-(2-fluorophenyl)sulfonyl-2-azaspiro[3.3]heptan-6-yl]-1,6-dimethyl-6,7-dihydropyrazolo[4,3-f][1,4]oxazepin-4-one] | 7 nM
C[C@@H]1CCN2CCOC[C@@H]2C(=O)N1C1CC2(C1)CN(S(=O)(=O)c1ccccc1F)C2 [Example 172] | 110 nM
Cc1nc2c(s1)C(=O)N(C1CC3(C1)CN(S(=O)(=O)c1ccccc1F)C3)[C@H](C)CO2 [Example 175] | 12 nM
C[C@@H]1COc2nc(C(F)F)sc2C(=O)N1C1CC2(C1)CN(S(=O)(=O)c1ccccc1F)C2 [Example 176] | 13 nM
C[C@@H]1COc2nc(C(C)(F)F)sc2C(=O)N1C1CC2(C1)CN(S(=O)(=O)c1ccccc1F)C2 [Example 178] | 12 nM
C[C@@H]1COc2nc(C3CC3)sc2C(=O)N1C1CC2(C1)CN(S(=O)(=O)c1ccccc1F)C2 [Example 180] | 4 nM
C[C@@H]1COc2nc(C3(F)CC3)sc2C(=O)N1C1CC2(C1)CN(S(=O)(=O)c1ccccc1F)C2 [Example 181] | 6 nM
C[C@H]1COc2nc(C3(F)CC3)sc2C(=O)N1C1CC2(C1)CN(S(=O)(=O)c1ccccc1F)C2 [Example 182] | 154 nM
C[C@@H]1COc2nc(C3(C(F)(F)F)CC3)sc2C(=O)N1C1CC2(C1)CN(S(=O)(=O)c1ccccc1F)C2 [Example 183] | 5 nM
Cc1cc2n(n1)CC[C@@H](C)N(C1CC3(C1)CN(S(=O)(=O)c1ccccc1F)C3)C2=O [Example 184] | 16 nM
Cc1nn2c(c1C)C(=O)N(C1CC3(C1)CN(S(=O)(=O)c1ccccc1F)C3)[C@H](C)CC2 [Example 185] | 24 nM
C[C@@H]1CCn2nc(Cl)cc2C(=O)N1C1CC2(C1)CN(S(=O)(=O)c1ccccc1F)C2 [Example 186] | 21 nM
C[C@@H]1CCn2nc(C(C)(F)F)cc2C(=O)N1C1CC2(C1)CN(S(=O)(=O)c1ccccc1F)C2 [Example 187] | 20 nM
C[C@@H]1CCn2nc(C3CC3)cc2C(=O)N1C1CC2(C1)CN(S(=O)(=O)c1ccccc1F)C2 [Example 188] | 8 nM
C[C@H]1CCn2nc(C3CC3)cc2C(=O)N1C1CC2(C1)CN(S(=O)(=O)c1ccccc1F)C2 [Example 189] | 68 nM
C[C@@H]1CCn2nc(C3(F)CC3)cc2C(=O)N1C1CC2(C1)CN(S(=O)(=O)c1ccccc1F)C2 [Example 190] | 11 nM

Continued, values first:

IC50 | Structure (SMILES)
1 nM | C[C@@H]1COc2cc(N3CCCC3)ncc2C(=O)N1C1CC2(C1)CN(S(=O)(=O)c1ccccc1F)C2 [Example 142]
1 nM | C[C@@H]1COc2cc(N3CC[C@H](F)C3)ncc2C(=O)N1C1CC2(C1)CN(S(=O)(=O)c1ccccc1F)C2 [Example 143]
1 nM | C[C@@H]1COc2cc(N3CC[C@@H](F)C3)ncc2C(=O)N1C1CC2(C1)CN(S(=O)(=O)c1ccccc1F)C2 [Example 144]
1 nM | C[C@@H]1COc2cc(N3CC(F)(F)C(F)(F)C3)ncc2C(=O)N1C1CC2(C1)CN(S(=O)(=O)c1ccccc1F)C2 [Example 147]
< 1 nM | C[C@@H]1COc2cc(N3C[C@H]4C[C@H]4C3)ncc2C(=O)N1C1CC2(C1)CN(S(=O)(=O)c1ccccc1F)C2 [Example 148]
1 nM | C[C@@H]1COc2cc(N3CCCCC3)ncc2C(=O)N1C1CC2(C1)CN(S(=O)(=O)c1ccccc1F)C2 [Example 149]
1 nM | C[C@@H]1COc2cc(N3CCCC[C@@H]3C)ncc2C(=O)N1C1CC2(C1)CN(S(=O)(=O)c1ccccc1F)C2 [Example 150]
1 nM | C[C@@H]1CCCCN1c1cc2c(cn1)C(=O)N(C1CC3(C1)CN(S(=O)(=O)c1ccccc1F)C3)[C@H](C)CO2 [Example 151]
1 nM | CC1CCN(c2cc3c(cn2)C(=O)N(C2CC4(C2)CN(S(=O)(=O)c2ccccc2F)C4)[C@H](C)CO3)CC1 [Example 153]
2 nM | COC1CCN(c2cc3c(cn2)C(=O)N(C2CC4(C2)CN(S(=O)(=O)c2ccccc2F)C4)[C@H](C)CO3)CC1 [Example 154]
1 nM | C[C@@H]1COc2cc(N3CCC(F)CC3)ncc2C(=O)N1C1CC2(C1)CN(S(=O)(=O)c1ccccc1F)C2 [Example 155]
2 nM | C[C@@H]1COc2cc(N3CCC(F)(F)CC3)ncc2C(=O)N1C1CC2(C1)CN(S(=O)(=O)c1ccccc1F)C2 [Example 156]
1 nM | C[C@@H]1COc2cc(N3CCCC(F)(F)C3)ncc2C(=O)N1C1CC2(C1)CN(S(=O)(=O)c1ccccc1F)C2 [Example 157]
6 nM | C[C@@H]1COc2cc(N3CCN(C)CC3)ncc2C(=O)N1C1CC2(C1)CN(S(=O)(=O)c1ccccc1F)C2 [Example 158]
1 nM | C[C@@H]1COc2cc(N3CCCCCC3)ncc2C(=O)N1C1CC2(C1)CN(S(=O)(=O)c1ccccc1F)C2 [Example 159]
1 nM | C[C@@H]1COc2cc(N3CCCOCC3)ncc2C(=O)N1C1CC2(C1)CN(S(=O)(=O)c1ccccc1F)C2 [Example 160]
2 nM | COc1cc2c(cn1)C(=O)N(C1CC3(C1)CN(S(=O)(=O)c1ccccc1F)C3)[C@H](C)CO2 [Example 165]
1 nM | C[C@@H]1COc2nc(N3CC[C@H](F)C3)ncc2C(=O)N1C1CC2(C1)CN(S(=O)(=O)c1ccccc1F)C2 [Example 169]
7 nM | C[C@@H]1COc2ncc(Br)cc2C(=O)N1C1CC2(C1)CN(S(=O)(=O)c1ccccc1F)C2 [Example 171]
